Molecular target: T1, ALDH1A3 (Homo sapiens, UniProt P47895)
T1 sequence (P47895 2-512): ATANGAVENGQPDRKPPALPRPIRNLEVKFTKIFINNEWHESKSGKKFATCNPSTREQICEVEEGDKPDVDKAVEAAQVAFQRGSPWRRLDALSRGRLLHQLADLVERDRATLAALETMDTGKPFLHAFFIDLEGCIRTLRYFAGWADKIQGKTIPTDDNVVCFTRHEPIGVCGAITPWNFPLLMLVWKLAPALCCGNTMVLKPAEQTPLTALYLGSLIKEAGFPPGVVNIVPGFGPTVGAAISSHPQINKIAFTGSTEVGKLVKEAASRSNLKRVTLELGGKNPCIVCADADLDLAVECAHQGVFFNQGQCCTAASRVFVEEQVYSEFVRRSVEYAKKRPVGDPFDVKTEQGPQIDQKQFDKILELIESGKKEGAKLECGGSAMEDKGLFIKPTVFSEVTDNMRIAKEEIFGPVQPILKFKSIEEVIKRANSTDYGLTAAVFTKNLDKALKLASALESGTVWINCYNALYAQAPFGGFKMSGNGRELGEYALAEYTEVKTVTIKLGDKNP
Assay: Aldefluor assay in A375 cells; also recombinant human ALDH1a3 in crude bacterial lysate (resazurin/diaphorase-coupled)
Format: cell-based

CCc1cnccc1C(=O)Nc1cc2c(cc1F)NC(=O)CC2 [KOTX1]
IC50: 5.1 nM
